Values of other authors as cited in publication PMC6311693 (ACS Central Science, 2018).

Conditions: 8 mg/kg; musculoskeletal system, increases in creatine phosphokinase

## CCCCCCCCCC(=O)N[C@@H](Cc1c[nH]c2ccccc12)C(=O)N[C@H](CC(N)=O)C(=O)N[C@@H](CC(=O)O)C(=O)N[C@@H]1C(=O)NCC(=O)N[C@@H](CCCN)C(=O)N[C@@H](CC(=O)O)C(=O)N[C@H](C)C(=O)N[C@@H](CC(=O)O)C(=O)NCC(=O)N[C@H](CO)C(=O)N[C@@H]([C@H](C)CC(=O)O)C(=O)N[C@@H](CC(=O)c2ccccc2N)C(=O)O[C@@H]1C [daptomycin]
  adverse effects in phase 1 clinical trials: unacceptable adverse effects
